The values below come from patent US20070031341A1, “Methods of delivering therapeutics to the brain” (priority 2005, published 2007).

For series [1] the following is noted: cited from earlier work.
Series [2] is described as follows: pKa and protonated cationic fraction of lubeluzole. The series is classed as physicochemical. The source says: Because lubeluzole has a PKa of 7.6 it is present in its protonated cationic form at pHs less than 7.6. For example, at pHs of 7.4 and 6.0, about 61% and 97% of lubeluzole is respectively present in its protonated cationic form. Therefore, the skilled artisan can expect a significant amount of lubeluzole to be present in its cationic form at relatively mild pHs and particularly at the pHs of physiologic CSF (˜7.5). Moreover, support for the transport of benzothiazole derivatives is found in the literature. Levamisole is believed to be a benzothiazole derivativethat has been transdermally transported iontophoretically in order to treat herpes simplex virus and recurrent aphthous stomatitis.

The test system of series [3] is cerebellar granule cells exposed to MPP+ neurotoxin. To be noted: 100 μM Vitamin E; about 50% without; cited from earlier work.

For `CN(c1nc2ccccc2s1)C1CCN(C[C@H](O)COc2ccc(F)c(F)c2)CC1` [lubeluzole], the PKa in series [1] is given as 7.6. Further, the “lubeluzole present in its protonated cationic form” value in series [2] (pH 6.0) is given as roughly 97%; in series [2] (pH 7.4) it was “about 61%”.

For Vitamin E, the “in vitro viability of cerebellar granule cells exposed to MPP+” value in series [3] was “about 85%”.
